From patent publication US20230142547A1, “COMPOUNDS FOR TREATING OR PREVENTING A CORONAVIRIDAE INFECTION & METHODS AND USES FOR ASSESSING THE OCCURRENCE OF A CORONAVIRIDAE INFECTION” (ABIVAX, priority 2020, published 2023)
Where two headings read alike, the source gives them in different places.

Assays:
[1] = tested on: SARS-CoV2; assay: Inhibition of SARS-CoV2 replication in MucilAir reconstituted human airway epithelium, viral genome by RT-qPCR; type: cell-based; details: for effect on SARS-CoV2 replication (in words): daily treatment, increasing concentrations
[2] = tested on: human reconstituted airway epithelial model of bronchial origin; type: cell-based; details: infected HAE, 48h post-infection
[3] = tested on: SARS-CoV-2; type: cell-based; details: 48 hours post-infection, FIG. 2
[4] = Tissue distribution of radioactivity in rat after single oral [14C]-ABX464 (whole-body autoradiography, liquid scintillation counting); type: in vivo; details: for concentration of radioactivity, Aortic wall / concentration of radioactivity, Lung / concentration of radioactivity, Myocardium / concentration of radioactivity, Nasal mucosa / concentration of radioactivity, Oesophageal wall / concentration of radioactivity, Tongue / concentration of radioactivity, Blood / concentration of radioactivity, Plasma: male albino rats, single oral 20 mg/kg; for concentration of radioactivity, Blood / concentration of radioactivity, Plasma: liquid scintillation counting
Method: (§1) This study was conducted in order to determine the tissue distribution and rates and routes of excretion of radioactivity in the rat following a single oral administration of [^14C]-ABX464. Analysis was performed using liquid scintillation counting (plasma and excreta) and quantitative whole-body autoradiography.
(§2) All animals received a single oral administration of [^14C]-ABX464 by oral gavage, at a nominal dose level of 20 mg/kg body weight and a dose volume of approximately 5 mL/kg. The target radioactive dose administered was ca 8 MBq/kg body weight.
Radioactivity in Blood and Plasma Whilst under terminal anaesthesia, but before freezing, up to 2 mL of blood was obtained from all animals by cardiac puncture and transferred to tubes pre-coated with K2-EDTA. The residual sample was centrifuged in order to obtain plasma. The radioactivity concentration was measured in blood and plasma by liquid scintillation counting.
For each animal, the legs, tail and whiskers were trimmed off and the frozen carcass set in a block of aqueous 2% (w/v) carboxymethylcellulose. The block was mounted onto the stage of a Leica CM3600 cryomicrotome maintained at ca −20° C. (Leica Microsystems (UK) Ltd) and sagittal sections (nominal thickness 30 μm) were obtained through the carcass to include the following tissues: exorbital lachrymal gland, intra-orbital lachrymal gland, Harderian gland, adrenal gland, thyroid, brain and spinal cord. The sections, mounted on Filmolux 610 Tape (Neschen UK), were freeze-dried in a GVD03 bench-top freeze-drier (Girovac Ltd) and placed in contact with FUJI imaging plates (type BAS-MS, Raytek Scientific Ltd). [^14C]-Blood standards of appropriate activity (also sectioned at a nominal thickness of 30 μm) were placed in contact with all imaging plates.
After exposure in a copper-lined, lead exposure box for 7 days, the imaging plates were processed using a FUJI FLA-5000 radiography system (Raytek Scientific Ltd). Electronic images were analysed using a PC-based image analysis package (Seescan 2 software, LabLogic Ltd). The carbon-14 standards included with each autoradiogram were used to construct calibration lines over a range of radioactivity concentrations.
Wherever possible, the maximum area within a single autoradiogram was defined for each tissue for measurement.
(§3) A suitable scintillation counter was used. Radioassays were performed at least in duplicate. Efficiency correlation curves were prepared and routinely checked by the use of [14-C]toluene and Ultima Gold™ quenched standards (PerkinElmer LAS (UK) Ltd).
Concentration of radioactivity in sample=C (dpm/g)
Specific radioactivity of test substance=S (MBq/mg)
Concentration of radioactivity in sample=(C/60000)/S (μg equiv/g)

[5] = Rates and routes of excretion of radioactivity in rat after single oral [14C]-ABX464; type: in vivo
Method: as §1, §2, §3

[6] = tested on: SARS-CoV2; assay: ABX464 in combination with Remdesivir: SARS-CoV2 viral RNA in HAE by RT-qPCR; type: cell-based; details: FIG. 3B
[7] = Severe acute respiratory syndrome coronavirus 2, RTqPCR, mean of duplicates, read-out: % inhibition of viral infection, MEAN
[8] = Severe acute respiratory syndrome coronavirus 2, RTqPCR, replicate N1, read-out: % inhibition of viral infection, N1
[9] = Severe acute respiratory syndrome coronavirus 2, RTqPCR, replicate N2, read-out: % inhibition of viral infection, N2

FC(F)(F)Oc1ccc(Nc2ccc3cccc(Cl)c3n2)cc1 [ABX464, 8-Chloro-N-(4-(trifluoromethoxy)phenyl)quinolin-2-amine]
inhibition at 0.1 µM [1, 7]: 32.5%
inhibition at 0.1 µM [1, 8]: 26.4%
inhibition at 0.1 µM [1, 9]: 38.5%
inhibition at 1 µM [1, 7]: 93.2%
inhibition at 1 µM [1, 8]: 88.8%
inhibition at 1 µM [1, 9]: 97.7%
inhibition at 5 µM ([1]; Severe acute respiratory syndrome coronavirus 2, 5 μM, RTqPCR, mean of duplicates, read-out: % inhibition of viral infection, MEAN): 95.5%
inhibition at 5 µM ([1]; Severe acute respiratory syndrome coronavirus 2, 5 μM, RTqPCR, replicate N1, read-out: % inhibition of viral infection, N1): 99.4%
inhibition at 5 µM ([1]; Severe acute respiratory syndrome coronavirus 2, 5 μM, RTqPCR, replicate N2, read-out: % inhibition of viral infection, N2): 91.7%
effect on SARS-CoV2 replication (in words) [1]: dose-dependent inhibition of SARS-CoV2 replication
epithelium integrity measured by TEER (in words) [2]: protective effect on the integrity of bronchial epithelium
TCID50 (in words) [3]: dose-dependent decrease of the TCID50
concentration of radioactivity, Aortic wall ([4]; 1 hour): 0.337 μg equivalents per gram
concentration of radioactivity, Lung ([4]; 1 hour): 1.19 μg equivalents per gram
concentration of radioactivity, Myocardium ([4]; 1 hour): 1.28 μg equivalents per gram
concentration of radioactivity, Nasal mucosa ([4]; 1 hour): 0.252 μg equivalents per gram
concentration of radioactivity, Oesophageal wall ([4]; 1 hour): 1.72 μg equivalents per gram
concentration of radioactivity, Tongue ([4]; 1 hour): 0.495 μg equivalents per gram
concentration of radioactivity, Blood ([4]; 1 hour): 0.398 μg equivalents per gram
concentration of radioactivity, Plasma ([4]; 1 hour): 0.461 μg equivalents per gram
concentration of radioactivity, Aortic wall ([4]; 4 hours): 1.59 μg equivalents per gram
concentration of radioactivity, Lung ([4]; 4 hours): 1.89 μg equivalents per gram
concentration of radioactivity, Myocardium ([4]; 4 hours): 1.45 μg equivalents per gram
concentration of radioactivity, Nasal mucosa ([4]; 4 hours): 0.708 μg equivalents per gram
concentration of radioactivity, Oesophageal wall ([4]; 4 hours): 2.72 μg equivalents per gram
concentration of radioactivity, Tongue ([4]; 4 hours): 1.92 μg equivalents per gram
concentration of radioactivity, Blood ([4]; 4 hours): 0.978 μg equivalents per gram
concentration of radioactivity, Plasma ([4]; 4 hours): 1.25 μg equivalents per gram
concentration of radioactivity, Aortic wall ([4]; 8 hours): 1.74 μg equivalents per gram
concentration of radioactivity, Lung ([4]; 8 hours): 1.45 μg equivalents per gram
concentration of radioactivity, Myocardium ([4]; 8 hours): 0.677 μg equivalents per gram
concentration of radioactivity, Nasal mucosa ([4]; 8 hours): 0.585 μg equivalents per gram
concentration of radioactivity, Oesophageal wall ([4]; 8 hours): 0.795 μg equivalents per gram
concentration of radioactivity, Tongue ([4]; 8 hours): 0.689 μg equivalents per gram
concentration of radioactivity, Blood ([4]; 8 hours): 0.807 μg equivalents per gram
concentration of radioactivity, Plasma ([4]; 8 hours): 1.18 μg equivalents per gram
concentration of radioactivity, Aortic wall ([4]; 24 hours): 0.129 μg equivalents per gram
concentration of radioactivity, Lung ([4]; 24 hours): 0.457 μg equivalents per gram
concentration of radioactivity, Myocardium ([4]; 24 hours): 0.143 μg equivalents per gram
concentration of radioactivity, Nasal mucosa ([4]; 24 hours): 0.084 μg equivalents per gram
concentration of radioactivity, Oesophageal wall ([4]; 24 hours): 0.265 μg equivalents per gram
concentration of radioactivity, Tongue ([4]; 24 hours): 0.122 μg equivalents per gram
concentration of radioactivity, Blood ([4]; 24 hours): 0.229 μg equivalents per gram
concentration of radioactivity, Plasma ([4]; 24 hours): 0.203 μg equivalents per gram
increase of affinity of related radioactivity to bind to the cellular partition of blood ([4]; over the study duration, rat, oral 20 mg/kg): 10 fold
binding of related material to melanin ([4]; rat, oral 20 mg/kg): no evidence for the binding
radioactivity in the central nervous system / blood-brain barrier ([4]; rat, oral 20 mg/kg): drug related material crossed the blood-brain barrier, but was subsequently eliminated
systemic and tissue bioavailability by the oral route (in words) ([4]; rat, oral 20 mg/kg): excellent systemic and tissue bioavailability
radioactivity remaining in carcasses ([5]; final sampling time of 168 hours, excretion balance phase): less than 0.5 % of the administered dose
elimination of radioactivity via faeces ([5]; rat, oral 20 mg/kg): 88%
radioactivity excreted via the renal system ([5]; rat, oral 20 mg/kg): less than 5%
total mean recovery of radioactivity ([5]; rat, oral 20 mg/kg): 93%±1.8
orally administered dose absorbed ([5]; rat, oral 20 mg/kg, inferred from excretion): at least 5%
reduction of viral RNA ([6]; 1 μM of ABX464 alone, HAE, RT-qPCR): 1.5 log

N#Cc1ccc(Nc2ccc3ccccc3n2)nc1 [ABX300, reference compound]
% inhibition of viral replication ([1]; all tested concentrations (10 μM, 1 μM and 0.1 μM)): 0%
effect on SARS-CoV2 replication (in words) [1]: fails to show a marked effect on viral replication
epithelium integrity measured by TEER (in words) [2]: reduction in epithelium integrity
TCID50 (in words) [3]: very modest effect on the TCID50

CCC(CC)COC(=O)[C@H](C)N[P@](=O)(OC[C@H]1O[C@@](C#N)(c2ccc3c(N)ncnn23)[C@H](O)[C@@H]1O)Oc1ccccc1 [Remdesivir, reference compound]
inhibition at 5 µM ([1]; Severe acute respiratory syndrome coronavirus 2, read-out: % inhibition of viral infection, MEAN): 100%
inhibition at 5 µM ([1]; Severe acute respiratory syndrome coronavirus 2, read-out: % inhibition of viral infection, N1): 99.9%
inhibition at 5 µM ([1]; Severe acute respiratory syndrome coronavirus 2, read-out: % inhibition of viral infection, N2): 100%
reduction of viral RNA ([6]; REM alone (5 μM), values from another experiment): 4 log

O=C(O)[C@H]1O[C@@H](N(c2ccc(OC(F)(F)F)cc2)c2ccc3cccc(Cl)c3n2)[C@H](O)[C@@H](O)[C@@H]1O [ABX464-N-Gluc]
inhibition at 0.1 µM [1, 7]: 0%
inhibition at 0.1 µM [1, 8]: 0%
inhibition at 0.1 µM [1, 9]: 0%
inhibition at 1 µM [1, 7]: 29%
inhibition at 1 µM [1, 8]: 20%
inhibition at 1 µM [1, 9]: 38%
inhibition at 10 µM [1, 7]: 88%
inhibition at 10 µM [1, 8]: 99.9%
inhibition at 10 µM [1, 9]: 76%
effect on SARS-CoV2 replication (in words) [1]: dose-dependent effect
TCID50 (in words) [3]: a decrease is also observed
